Measured values published in US20040138272A1, “1,4-Substituted cyclohexane derivatives” (priority 2002, published 2004).
Entries after “also recorded” stand apart in the source; their conditions may differ.

Columns and labels:
[1] = test system: retinal ganglion cell axons; assay: Axon regeneration after optic nerve crush, intravitreal injection; type: in vivo, rat; conditions: adult rats, two weeks after crush
Protocol: To examine the ability of BA-1016 to promote axon regeneration in vivo, the regeneration of retinal ganglion cell axons was examined in the optic nerve after intravitrial injection of BA-1016. In these experiments, BA-1016 was injected at in the vitreous of rats immediately after optic nerve crush that transects all of the retinal ganglion cell (RGC) axons (Lehmann et al, IBID). Two weeks later the animals cholera toxin B subunit was injected in the eye to anterogradelty label the regenerating RGC axons. The next day the animals were killed perfused with saline, and the optic nerves removed for sectioning. Longitudinal sections of the optic nerve were reacted for anti-cholera toxin immunoreactivity to observe the anterogradely labeled fibers.
Rats were anesthetized with isoflorane (2.4%) and the head shaved. […] Retinal ganglion cell axons were labeled by CTB were detected by immunohistochemistry for CTB using a goat anti-choleragenoid (List Biological Labs.), a biotinylated rabbit anti-goat (Vector Labs., Burlingame, Calif.) and DTAF-conjugated streptavidin (Jackson Labs., West Grove, Pa.) as described previously (Lehmann et al IBID)

[2] = test system: retinal ganglion cells (RGC); assay: Retinal ganglion cell survival 7 days after optic nerve axotomy, intravitreal injection; type: in vivo, rat; conditions: for % Survival / Average RGC counts: 7 days after axotomy
From the text: The retinal ganglion cell (RGC) response to injury and ischemia has been well documented (Berkelaar et al., 1994; Selles-Navarro et al., 1996; Vidal-Sanz et al., 1988; Villegas-Perez et al., 1998; Villegas-Perez et al., 1993). Transection of the optic nerve (ON) in the adult rat, as a model of fiber tract lesion in the adult mammalian CNS, results in delayed, mainly apoptotic death of 80-90% of retinal ganglion cells (RGCs) within 14 days post-lesion. Because of good surgical accessibility of the retina and the optic nerve, the retino-tectal projection represents not only a convenient model to study the molecular mechanisms underlying neuronal death but also serves as a suitable system for investigating potential neuroprotective agents in vivo.
After optic nerve transection, many of the retinal ganglion cells (RGC) in the eye die by apoptosis. The ability of BA-1016 to support RGC cell survival after optic nerve injury was tested. A single injection of BA-1016 was made in the eye, and one week later cell survival was assessed. Three animals were examined for each treatment group. Cell survival was improved one week after BA-1016. Neurotrophic factors that are known to rescue RGCs also give improved cell surival one week after axotomy, but multiple or chronic application is needed to increase the number of surviving cells.
Experiments were performed on adult female CD rats (180-200 g; Charles River, Canada). Animals were cared for according to the Canadian Council on Animal Care. Rats were under general anaesthesia with isofluorane connected to Moduflex Access anaesthesia machine during experimental procedures. Ophthalmic eye ointment (Polysporin) was applied to prevent corneal desiccation. […] All rats were pre-labelled with Fluorogold one week prior to optic nerve lesion.
One week after Fluorogold application, the left optic nerve was transected 1 mm from the eye. […] There are blood vessels on pia and optic nerve. The pia mater sheath was lifted and a lateral incision exposed the optic nerve. It was important not to cut the optic nerve before cutting the pia. When pia was cut, the optic nerve was moved gently to dislodge it from its sheath so that the scissors could be slipped under it to cut it. It was important to not pull the nerve at this point to avoid compromising the blood supply. When the optic nerve was well exposed, small scissors were slid tangentially under optic nerve, making sure to see their end on other side of the nerve, then cutting with one clean cut at 1 mm from the eye. Scissor blades were used as a reference for the 1 mm distance.
In the group of animals assigned to receive intravitreal injection after axotomy, the compounds of interest were injected into the vitreous space. […] The needle was removed after one minute. […]
A binocular microscope was used to view the eye during injection. The skin was closed with staples (auto clips) and the integrity of the retinal vasculature was evaluated by a postoperative ophthalmoscopy using a water-covered microscope slide. […] Finally the animals were returned to the cage and closely monitored until awakened
Seven days after axotomy, animals were killed by injecting an overdose of Chloral hydrate intraperitoneally and then they were fixed by perfusion with 4% paraformaldehyde (PFA), 0.1 M phosphate buffer; the eyes were remove carefully transecting the ocular muscles with scissors and forceps. […] RGCs are examined under the fluorescence microscope with an UV filter (365/420). […]

[3] = biological target: T1, human Rho kinase II (ROCK-II (h)) (Homo sapiens, UniProt O75116); assay: Commercial inhibition assay with recombinant human ROCKII, IC50 curves (FIGS. 8, 9); type: biochemical
T1 construct: purchased
From the text: Referring to FIGS. 8 and 9 inhibiton of ROCKII activity and determination of IC50 may also be done throught the use of known (i.e. commercial) inhibition assays that use recombinant human ROCKII.

T1 sequence (O75116 whole entry): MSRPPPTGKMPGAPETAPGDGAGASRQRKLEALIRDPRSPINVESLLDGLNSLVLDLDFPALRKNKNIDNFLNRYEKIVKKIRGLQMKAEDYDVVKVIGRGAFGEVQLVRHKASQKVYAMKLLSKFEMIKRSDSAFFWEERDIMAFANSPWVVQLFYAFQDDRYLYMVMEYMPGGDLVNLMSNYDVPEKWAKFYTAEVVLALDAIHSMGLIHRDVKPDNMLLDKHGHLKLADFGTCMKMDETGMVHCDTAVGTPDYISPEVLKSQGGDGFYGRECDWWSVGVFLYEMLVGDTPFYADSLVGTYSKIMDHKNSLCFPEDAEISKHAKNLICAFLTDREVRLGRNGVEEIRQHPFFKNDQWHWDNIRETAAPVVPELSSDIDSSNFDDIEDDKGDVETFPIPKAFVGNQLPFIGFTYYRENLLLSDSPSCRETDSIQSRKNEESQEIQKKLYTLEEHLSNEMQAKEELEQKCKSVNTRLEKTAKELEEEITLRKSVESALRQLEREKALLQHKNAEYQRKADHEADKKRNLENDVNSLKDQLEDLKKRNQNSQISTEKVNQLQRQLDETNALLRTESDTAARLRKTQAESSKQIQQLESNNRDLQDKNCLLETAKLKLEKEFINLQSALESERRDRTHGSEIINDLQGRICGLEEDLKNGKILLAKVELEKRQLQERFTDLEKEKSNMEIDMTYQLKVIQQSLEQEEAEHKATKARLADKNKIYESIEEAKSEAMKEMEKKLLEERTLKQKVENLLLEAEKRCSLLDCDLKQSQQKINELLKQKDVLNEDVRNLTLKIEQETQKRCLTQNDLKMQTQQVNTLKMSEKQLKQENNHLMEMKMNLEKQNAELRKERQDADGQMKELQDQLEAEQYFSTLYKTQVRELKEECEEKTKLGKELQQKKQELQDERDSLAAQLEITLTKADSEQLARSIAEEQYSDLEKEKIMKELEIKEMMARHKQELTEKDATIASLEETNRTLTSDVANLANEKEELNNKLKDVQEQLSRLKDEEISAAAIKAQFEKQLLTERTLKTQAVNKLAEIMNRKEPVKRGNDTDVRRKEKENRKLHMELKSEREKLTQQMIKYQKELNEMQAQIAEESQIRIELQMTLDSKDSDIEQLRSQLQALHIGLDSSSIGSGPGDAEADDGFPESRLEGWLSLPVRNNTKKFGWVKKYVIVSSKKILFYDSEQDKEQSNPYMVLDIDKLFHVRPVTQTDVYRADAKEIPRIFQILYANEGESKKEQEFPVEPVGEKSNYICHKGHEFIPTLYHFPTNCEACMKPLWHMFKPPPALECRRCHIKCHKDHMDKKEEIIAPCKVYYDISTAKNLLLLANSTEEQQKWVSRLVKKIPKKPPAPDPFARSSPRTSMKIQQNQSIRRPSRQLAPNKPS

(R)-trans-4-(But-3′-en-1′-amino)-N-(4″-pyridyl)cyclohexane Carboxamide Dihydrochloride [BA-1016]
distances of axon growth [1]: exceeded 500 um
axon regeneration after optic nerve injury (FIG. 5) ([1]; Dihydrochloride): can promote axon regeneration; also recorded: RGC axons were observed
% Survival ([2]; Axotomy + 0.1 mM): 59%
Average RGC counts ([2]; Axotomy + 0.1 mM): 1352
% Survival ([2]; Axotomy + 1 mM): 60%
Average RGC counts ([2]; Axotomy + 1 mM): 1378
RGC cell survival after optic nerve injury ([2]; single injection in the eye, one week): improved
IC50 [3]: 1900 nM
